These results are taken from patent US9586936B2, “Heteroarylamine derivatives as protein kinase inhibitors” (KOREA INSTITUTE OF SCIENCE AND TECHNOLOGY, priority 2014, dated 2017).

Series [1] concerns bladder cancer cell line RT112. Kind of series: inhibition of proliferation of cancer cells. The series is classed as cell-based. Conditions: Homo sapiens, RT-112, read-out: Ability of inhibiting proliferation of RT112 (GI50). The procedure: The ability of the compound of the present invention of inhibiting the proliferation of the bladder cancer cell line RT112 was determined as the GI50 value.

The target of another series is FGFR3 (Homo sapiens, UniProt P22607). Conditions: literature statement; cited from earlier work.
Chain of FGFR3 (P22607 23-806): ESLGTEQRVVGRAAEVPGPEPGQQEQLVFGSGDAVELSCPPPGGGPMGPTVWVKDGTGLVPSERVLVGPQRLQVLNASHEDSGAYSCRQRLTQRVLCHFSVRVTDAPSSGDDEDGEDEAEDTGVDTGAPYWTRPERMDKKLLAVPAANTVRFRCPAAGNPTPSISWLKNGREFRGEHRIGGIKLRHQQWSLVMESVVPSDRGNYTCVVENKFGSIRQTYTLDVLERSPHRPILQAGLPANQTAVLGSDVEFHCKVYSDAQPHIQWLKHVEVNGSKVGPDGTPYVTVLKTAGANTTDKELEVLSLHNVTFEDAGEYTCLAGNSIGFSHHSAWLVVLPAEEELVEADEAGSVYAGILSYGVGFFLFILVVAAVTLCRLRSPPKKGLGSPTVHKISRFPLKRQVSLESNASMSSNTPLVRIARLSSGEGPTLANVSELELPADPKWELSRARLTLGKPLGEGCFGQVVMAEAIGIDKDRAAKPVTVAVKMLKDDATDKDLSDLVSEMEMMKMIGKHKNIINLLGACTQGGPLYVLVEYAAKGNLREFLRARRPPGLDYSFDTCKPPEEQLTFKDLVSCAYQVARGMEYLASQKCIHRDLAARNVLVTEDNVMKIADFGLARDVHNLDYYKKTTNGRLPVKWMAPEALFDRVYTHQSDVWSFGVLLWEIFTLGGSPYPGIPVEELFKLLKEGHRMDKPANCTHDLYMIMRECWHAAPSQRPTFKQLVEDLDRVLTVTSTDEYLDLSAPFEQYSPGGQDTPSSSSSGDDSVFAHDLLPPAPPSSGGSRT
Series [2] has as its system RT112 bladder cancer cell line. Conditions: literature statement; cited from earlier work.
A short description of series [3]: microsomal stability. In kind it is in vitro ADME, Mouse. Conditions: Mouse. The procedure: (§1) The microsomal stability of N-(2,6-dichloro-3,5-dimethoxyphenyl)-1-(6-((4-(4-ethylpiperazin-1-yl)phenyl)amino)pyrimidin-4-yl)-1H-benz[d]imidazol-2-amine synthesized in Example 1, as a representative compound of the present invention, was evaluated.
Series [4] in a line: microsomal stability. In kind it is in vitro ADME, Rat. Conditions: Rat. The procedure: as §1
A short description of series [5]: microsomal stability. In kind it is in vitro ADME, Human. Conditions: Human. Here is the method: as §1
Series [6] can be described thus: microsomal stability. The series is classed as in vitro ADME, Dog. Conditions: Dog. Here is the method: as §1

As for `COc1cc(N2CCN(C)CC2)ccc1Nc1cc(-n2c(Nc3c(Cl)c(OC)cc(OC)c3Cl)nc3ccccc32)ncn1` [Example 2, N-(2,6-dichloro-3,5-dimethoxyphenyl)-1-(6-((2-methoxy-4-(4-methylpiperazin-1-yl)phenyl)amino)pyrimidin-4-yl)-1H-benz[d]imidazol-2-amine], the GI50 in series [1] is less than 1 µM.
Still for that read-out and setting: the same measure for `COc1cc(OC)c(Cl)c(Nc2nc3ccccc3n2-c2cc(Nc3ccc(N4CCOCC4)cc3)ncn2)c1Cl` [Example 3, N-(2,6-dichloro-3,5-dimethoxyphenyl)-1-(6-((4-morpholinophenyl)amino)pyrimidin-4-yl)-1H-benz[d]imidazol-2-amine]: less than 1 µM; for `COc1cc(N2CCOCC2)ccc1Nc1cc(-n2c(Nc3c(Cl)c(OC)cc(OC)c3Cl)nc3ccccc32)ncn1` [Example 4, N-(2,6-dichloro-3,5-dimethoxyphenyl)-1-(6-((2-methoxy-4-morpholinophenyl)amino)pyrimidin-4-yl)-1H-benz[d]imidazol-2-amine]: less than 1 µM; for `COc1cc(OC)c(Cl)c(Nc2nc3ccccc3n2-c2cc(Nc3ccc(N4CCC(N5CCCCC5)CC4)c(C(F)(F)F)c3)ncn2)c1Cl` [Example 5, 1-(6-((4-([1,4′-bipiperidin]-1′-yl)-3-(trifluoromethyl)phenyl)amino)pyrimidin-4-yl)-N-(2,6-dichloro-3,5-dimethoxyphenyl)-1H-benz[d]imidazol-2-amine]: less than 10 µM.
Same read-out and setting: the same measure for `COc1cc(OC)c(Cl)c(Nc2nc3ccccc3n2-c2cc(Nc3ccc(CN4CCN(CC5CCCCC5)CC4)cc3)ncn2)c1Cl` [Example 6, 1-(6-((4-((4-(cyclohexylmethyl)piperazin-1-yl)methyl)phenyl)amino)pyrimidin-4-yl)-N-(2,6-dichloro-3,5-dimethoxyphenyl)-1H-benz[d]imidazol-2-amine]: less than 10 µM; for `COc1cc(OC)c(Cl)c(Nc2nc3ccccc3n2-c2cc(N)ncn2)c1Cl` [Example 8]: less than 1 µM.
Still for that read-out and setting: the same measure for `CNc1cc(-n2c(Nc3c(Cl)c(OC)cc(OC)c3Cl)nc3ccccc32)ncn1` [Example 9, N-(2,6-dichloro-3,5-dimethoxyphenyl)-1-(6-(methylamino)pyrimidin-4-yl)-1H-benz[d]imidazol-2-amine]: less than 1 µM; for `COc1cc(OC)c(Cl)c(Nc2nc3ccccc3n2-c2cc(Nc3ccccc3)ncn2)c1Cl` [Example 10, N-(2,6-dichloro-3,5-dimethoxyphenyl)-1-(6-(phenylamino)pyrimidin-4-yl)-1H-benz[d]imidazol-2-amine]: less than 1 µM; for `COc1cc(OC)c(Cl)c(Nc2nc3ccccc3n2-c2cc(Nc3ncccn3)ncn2)c1Cl` [Example 11, N-(2,6-dichloro-3,5-dimethoxyphenyl)-1-(6-(pyrimidin-2-ylamino)pyrimidin-4-yl)-1H-benz[d]imidazol-2-amine]: less than 1 µM.
Take `CCN1CCN(c2ccc(Nc3cc(N(C)C(=O)Nc4c(Cl)c(OC)cc(OC)c4Cl)ncn3)cc2)CC1` [NVP-BGJ398, 3-(2,6-dichloro-3,5-dimethoxyphenyl)-1-{6-[4-(4-ethyl-piperazin-1-yl)phenylamino]pyrimidin-4-yl}-1-methylurea]: at FGFR3, the “inhibition activity against FGFR3, in words” value is recorded as “selective inhibition activity”. In addition, the “anticancer activity for the RT112 bladder cancer cell line, in words” value in series [2] was “effective anticancer activity”.
`Cc1ncc2n1-c1ccc(Cl)cc1C(c1ccccc1F)=NC2` [midazolam, reference compound]: the “microsomal stability (% at time)” value was determined as 100.00% in the series “microsomal stability [3]” (0 min); 10.42% in the series “microsomal stability [3]” (5 min); 1.13% in the series “microsomal stability [3]” (10 min); 0.18% in the series “microsomal stability [3]” (15 min); 0.05% in “microsomal stability [3]” (30 min); 100.00% in the series “microsomal stability [4]” (0 min). For the same compound, the “microsomal stability (% at time)” value in “microsomal stability [4]” (5 min) is on record as 13.65%; in the series “microsomal stability [4]” (10 min), 1.01%; in “microsomal stability [4]” (15 min), 0.14%; in “microsomal stability [4]” (30 min) it was 0.04%; in the series “microsomal stability [5]” (0 min), 100.00%; in the series “microsomal stability [5]” (5 min), 38.75%. In addition, the “microsomal stability (% at time)” value was 12.92% in the series “microsomal stability [5]” (10 min); 5.60% in the series “microsomal stability [5]” (15 min); 0.73% in “microsomal stability [5]” (30 min); 100.00% in “microsomal stability [6]” (0 min); 6.23% in “microsomal stability [6]” (5 min); 0.59% in the series “microsomal stability [6]” (10 min). For the same compound, the results for the “microsomal stability (% at time)” value in the series “microsomal stability [6]” (15 min) and in the series “microsomal stability [6]” (30 min) were 0.27% and 0.10%, respectively.
